The source of these data is patent US20170166981A1, “BIOMARKERS AND METHODS OF USE THEREOF” (THE TRANSLATIONAL GENOMICS RESEARCH INSTITUTE, priority 2011, published 2017).

One assay has as its system BT20 breast cancer cells. Conditions: reactivation of epigenetically silenced ERBB4; cited from earlier work.
For assay [1], the system named is metastatic triple negative breast cancer (mTNBC). As to the kind of experiment: Clinical tumor response of metastatic/locally recurrent TNBC patients to prior and molecularly-selected therapy (TNBC personalized genomics trial). It counts as in vivo, human. From the text: The secondary objective is to conduct a comprehensive evaluation of genetic mutations in TNBC that may accelerate the development of rational and precise therapeutics; and to evaluate patient's best response to molecularly-selected therapy.
A patient eligible for clinical trial inclusion in this study had to meet all of the following criteria: (1) has a metastatic or locally recurrent triple negative breast cancer and is scheduled for medically indicated surgical biopsy or resection of disease; (2) have measurable or evaluable (nonmeasurable) disease based on results generated by RECIST v 1.1 (Eisenhauera, 2009) presented after surgical biopsy/resection. Following surgical resection, if the tumor sample is found to be inadequate for comprehensive molecular analysis, the patient would be deemed ineligible and would be replaced; (3) has received at least 1 prior chemotherapeutic regimen for their metastatic or locally recurrent TNBC prior to initiating the molecularly-selected therapy. There is no limit on the prior therapy for TNBC. Intervening therapies were strongly recommended to be held off if possible from the time of biopsy to the completion of sequencing so as not to change the cancer under the selective pressure of treatment, so that the sequencing results would be reflective of the current cancer; (4) is >18 years of age; (5) has an expected survival of at least 6 months, as estimated by the treating oncologist; (6) has planned surgical resection (indicated for the medical care of the patient) that will yield a minimum fresh/frozen tumor sample of 1 cm×1 cm×1 cm that will be available for molecular profiling analysis; (6) is agreeable to having a blood sample (10-20mL) drawn and analyzed to compare their normal genetic profile to that of their tumor sample; (7) has signed the most recent Patient Informed Consent Form and a Patient Authorization Form.
A patient would be excluded from this study if she meets any of the following criteria: (1) has breast cancer other than metastatic or locally recurrent TNBC; and surgical resection of the recurrent TNBC will render the patient as “no evidence of disease” (NED), and thus to be replaced; (2) has a history of heart disease, other conditions that would prevent treatment with a standard chemotherapeutic agent; (3) has evidence of CNS involvement that is progressing or that requires radiation, resection or steroid therapy; (4) has a serious uncontrolled intercurrent medical or psychiatric illness, including serious infection; (5) is pregnant or nursing; (6) is unable to comply with requirements of study.
Generally, 14 patients with previously treated triple negative breast cancer were included in the clinical study (Table 11). Samples were collected for sequencing with the SOLiD™ system (Applied Biosystems, Carlsbad, Calif.), and the patients were treated according to what is found after CLIA certification of the target.
The baseline was measured at the beginning of the treatment, after 2 cycles (close to two months), 75% regression in primary lesion were observed (FIG. 11).
Through the deep molecular profiling study described herein, a series of somatic events within individual tumors were detected that have informed or may have predicted the effectiveness of targeted therapies for some patients. Table 21 provides key information on therapeutically actionable concepts and clinical outcomes in the patient cohort used for this example.

As to `Nc1ncn([C@H]2C[C@H](O)[C@@H](CO)O2)c(=O)n1` [5-aza-2′-deoxycytidine], in the assay with BT20 breast cancer cells, the apoptosis entry was “increased apoptosis”.

Regarding `C=C1C[C@@H]2CC[C@@]34C[C@H]5O[C@H]6[C@@H](O3)[C@H]3O[C@H](CC[C@@H]3O[C@H]6[C@H]5O4)CC(=O)C[C@@H]3[C@@H](OC)[C@@H](C[C@H](O)CN)O[C@H]3C[C@H]3O[C@@H](CC[C@@H]1O2)C[C@@H](C)C3=C` [Eribulin, eribulin], in assay [1] (Patient # 4, biomarker profile guided treatment), the Best results is listed as “Stable Disease”.

With `Cn1c(=O)n(-c2ccc(C(C)(C)C#N)cc2)c2c3cc(-c4cnc5ccccc5c4)ccc3ncc21` [BEZ235], the reduction in nodes in assay [1] (Patient 14) is 21%. Besides, the Best results in assay [1] (Patient # 3, biomarker profile guided treatment) is “Progressive Disease”.

As to `Cn1c(=O)n(-c2ccc(C(C)(C)C#N)cc2)c2c3cc(-c4cnc5ccccc5c4)ccc3ncc21` [BEX235], the Best results in assay [1] (Patient # 1, biomarker profile guided treatment (hit only one arm of what suggested MEK/AKT)) was “Stable Disease”.

For `NC(=O)c1ccc(I)c([N+](=O)[O-])c1` [Iniparib], the clinical response result in assay [1] (patient mTNBC9 / TNBC-009 (DNA damage and double-strand break repair defects)) was “responsive”.
